The text below walks through data of patent publication US12559474B2, “Triazine derivatives having virus replication inhibitory activity and pharmaceutical composition comprising the same” (priority 2021, dated 2026).

Each structure is given as a SMILES string. Where two headings read alike, the source gives them in different places.

For experiment [1], the target named is SARS-CoV-2 3CL protease (Severe acute respiratory syndrome coronavirus 2, UniProt P0DTD1). As to the kind of experiment: biochemical.
In experiment [2] the test system is SARS-CoV-2. As to the kind of experiment: microbe, parasite or virus in culture. The format is cell-based. The following applies: for EC50: Severe acute respiratory syndrome coronavirus 2, VeroE6/TMPRSS2, 72 h, 50% SARS-CoV-2 infected cell death inhibitory concentration, VeroE6/TMPRSS2 cells, 3 days culture; for coronavirus replication inhibitory activity: at concentrations up to 50 μM, tested as in Test Example 1 (Reference Example 1).

Where [3] appears, read: 50% SARS-CoV-2 3CL protease inhibitory concentration, given as class symbols, read-out: IC50.
Where [4] appears, read: 50% SARS-CoV-2 3CL protease inhibitory concentration, RapidFire MS, read-out: IC50.

As to `O=C1CCC(Nc2nc(=O)n(Cc3ccc[nH]c3=O)c(=O)n2Cc2cc(F)c(F)c(F)c2)CN1` (racemic) [Compound I-0133], the IC50 in experiment [1] (setting [3]) is 1000 to 10000 nM; in experiment [1] (setting [4]), 3400 nM. The 50% effective concentration (EC50) in experiment [2] (class symbols) was < 1000 nM.
Regarding `COc1ccc(Nc2nc(=O)n(CC3CCNC3=O)c(=O)n2Cc2cc(F)c(F)c(F)c2)cc1` (racemic) [Compound I-0301], the IC50 in experiment [1] (setting [3]) is 1000 to 10000 nM; in experiment [1] (setting [4]), 3800 nM. Moreover, in experiment [2] (class symbols), the half-maximal effective concentration (EC50) is < 1000 nM.
In the case of `Cn1cnc(Cn2c(=O)nc(Nc3cc4cn(CC5CCO5)nc4cc3Cl)n(Cc3cc(Cl)c(F)cc3F)c2=O)n1` (racemic) [II-0408], the 50% inhibitory concentration (IC50) in experiment [1] (setting [3]) is < 100 nM. For the same molecule, in experiment [2] (class symbols), the EC50 was in the range of 1000 to 10000 nM.
The like results for `Cn1cnc(Cn2c(=O)nc(Nc3cc4cn(CC5CCCO5)nc4cc3Cl)n(Cc3cc(Cl)c(F)cc3F)c2=O)n1` (racemic) [II-0409] were, in that order, < 100 nM and 1000 to 10000 nM.
The like results for `Cc1nc2cc(Cl)c(Nc3nc(=O)n(Cc4ccc[nH]c4=O)c(=O)n3Cc3ccc(F)c(Cl)c3)cc2n1C` [Compound I-0007] were, in that order, < 100 nM and 1000 to 10000 nM.
As for `Cn1cc2cc(Nc3nc(=O)n(Cc4ccc[nH]c4=O)c(=O)n3Cc3cc(F)cc(Cl)c3)c(Cl)cc2n1` [Compound I-0008], the half-inhibitory concentration (IC50) in experiment [1] (setting [3]) is < 100 nM. For the same molecule, the EC50 in experiment [2] (class symbols) lay within 1000 to 10000 nM.
For `Cn1cc2cc(Nc3nc(=O)n(Cc4ccc[nH]c4=O)c(=O)n3Cc3cc(F)c(F)cc3F)c(Cl)cc2n1` [Compound I-0009], in that order: < 100 nM and < 1000 nM.
For `N#Cc1cc(Cn2c(Nc3cc4c(cc3Cl)OCC4)nc(=O)n(Cc3ccc[nH]c3=O)c2=O)cc(F)c1F` [Compound I-0011], in that order: < 100 nM and < 1000 nM.
For `Cn1cc2cc(Nc3nc(=O)n(Cc4ccc[nH]c4=O)c(=O)n3Cc3cc(F)c(F)c(C#N)c3)c(Cl)cc2n1` [Compound I-0012], in that order: < 100 nM and 1000 to 10000 nM.
For `N#Cc1cc(Cn2c(Nc3cc4c(cc3Cl)OCC4)nc(=O)n(Cc3ccc[nH]c3=O)c2=O)ccc1F` [Compound I-0013], in experiment [1] (setting [3]), the half-inhibitory concentration (IC50) is < 100 nM. The EC50 in experiment [2] (class symbols) was 1000 to 10000 nM.
On to `O=c1[nH]cccc1Cn1c(=O)nc(Nc2cc3c(cc2Cl)OCC3)n(Cc2cc(F)c(F)cc2F)c1=O` [Compound I-0016], for which the half-maximal inhibitory concentration (IC50) in experiment [1] (setting [3]) was < 100 nM. For the same molecule, the EC50 in experiment [2] (class symbols) was < 1000 nM.
The like results for `O=c1[nH]cccc1Cn1c(=O)nc(Nc2ccc3c(c2)CCCO3)n(Cc2cc(F)c(F)c(F)c2)c1=O` [Compound I-0019] were, in that order, < 100 nM and 1000 to 10000 nM.
Regarding `COc1ccc(Nc2nc(=O)n(Cc3ccc[nH]c3=O)c(=O)n2Cc2cc(F)c(F)c(F)c2)cc1` [Compound I-0020], the half-maximal inhibitory concentration (IC50) in experiment [1] (setting [3]) is < 100 nM. The molecule further returned an EC50 in experiment [2] (class symbols) of 1000 to 10000 nM.
Regarding `O=c1[nH]cccc1Cn1c(=O)nc(Nc2ccc3c(c2)CCO3)n(Cc2cc(F)c(F)c(F)c2)c1=O` [Compound I-0025], in experiment [1] (setting [3]), the half-inhibitory concentration (IC50) is < 100 nM. The molecule also displayed an EC50 in experiment [2] (class symbols) of 1000 to 10000 nM.
Turning to `COc1ccc(Nc2nc(=O)n(Cc3ccc[nH]c3=O)c(=O)n2Cc2cc(F)c(F)c(F)c2)c(F)c1` [Compound I-0026], the concentration for half-maximal inhibition (IC50) in experiment [1] (setting [3]) was < 100 nM. For the same molecule, the concentration giving a half-maximal response (EC50) in experiment [2] (class symbols) was in the range of 1000 to 10000 nM.
With `O=c1[nH]cccc1Cn1c(=O)nc(Nc2cccc3[nH]ccc23)n(Cc2cc(F)c(F)c(F)c2)c1=O` [Compound I-0031], the IC50 is 100 to 1000 nM in experiment [1] (setting [3]) and 130 nM in experiment [1] (setting [4]). The EC50 was 4060 nM in experiment [2] (CellTiter-Glo 2.0) and 1000 to 10000 nM in experiment [2] (class symbols).
In the case of `CS(=O)(=O)c1ccc(Nc2nc(=O)n(Cc3ccc[nH]c3=O)c(=O)n2Cc2cc(F)c(F)c(F)c2)cc1` [Compound I-0033], the IC50 in experiment [1] (setting [3]) was 1000 to 10000 nM; in experiment [1] (setting [4]), 5600 nM. In experiment [2] (class symbols), the EC50 is < 1000 nM.
For `O=C(O)c1ccc(Nc2nc(=O)n(Cc3ccc[nH]c3=O)c(=O)n2Cc2cc(F)c(F)c(F)c2)cc1` [Compound I-0035], in that order: 1000 to 10000 nM, 3500 nM and < 1000 nM.
The like results for `O=c1[nH]cccc1Cn1c(=O)nc(NC2CCS(=O)(=O)CC2)n(Cc2cc(F)c(F)c(F)c2)c1=O` [Compound I-0038] were, in that order, 1000 to 10000 nM, 1300 nM and < 1000 nM.
With `COc1ccc(Nc2nc(=O)n(Cc3ccc[nH]c3=O)c(=O)n2Cc2cc(F)c(F)c(F)c2)c(OC)c1` [Compound I-0042], the IC50 in experiment [1] (setting [3]) was < 100 nM. Also, the EC50 in experiment [2] (class symbols) fell in the range of 1000 to 10000 nM.
Take `Cc1ccc(Cn2c(=O)nc(Nc3cccc(C(F)(F)F)c3)n(Cc3ccc(Cl)c(Cl)c3)c2=O)cc1` [Compound I-066, reference compound]: the “coronavirus replication inhibitory activity” value in experiment [2] is on record as “did not show coronavirus replication inhibitory activity”.
In turn, `Cc1cncc(-n2c(=O)[nH]/c(=N\c3cc4cn(C)nc4cc3Cl)n(Cc3cc(F)c(F)c(F)c3)c2=O)c1` [Compound I-0113] yielded a half-maximal effective concentration (EC50) in experiment [2] (CellTiter-Glo 2.0) of 177 nM.
For the molecule `Cc1cncc(-n2c(=O)nc(Nc3cc4cn(C)nc4cc3Cl)n(Cc3cc(F)c(F)cc3F)c2=O)c1` [Compound I-0361], a half-maximal effect in experiment [2] (CellTiter-Glo 2.0) (EC50) was put at 131 nM.
As for `O=C(O)c1ccc(Oc2ccc(/N=c3\[nH]c(=O)n(-c4cccs4)c(=O)n3Cc3ccc(Cl)cc3)cc2)nc1` [Compound I-575, reference compound], the “coronavirus replication inhibitory activity” value in experiment [2] is recorded as “did not show coronavirus replication inhibitory activity”.
Still for that read-out and setting: as for `O=C(O)c1ccc(Oc2ccc(/N=c3\[nH]c(=O)n(-c4ccon4)c(=O)n3Cc3ccc(Cl)cc3)cc2)nc1` [Compound I-580, reference compound], the entry is “did not show coronavirus replication inhibitory activity”; as for `CC(C)Oc1ccc(/N=c2\[nH]c(=O)n(Cc3ncn[nH]3)c(=O)n2Cc2ccc(Cl)cc2)cc1F` [Compound I-0679, reference compound], “did not show coronavirus replication inhibitory activity”.
On to `COc1ncccc1Cn1c(=O)[nH]/c(=N\c2ccc(OC(C)C)c(F)c2)n(Cc2ccc(Cl)cc2)c1=O` [Compound I-0683, reference compound], for which the “coronavirus replication inhibitory activity” value in experiment [2] is “did not show coronavirus replication inhibitory activity”.
On the same count and under the same terms, as for `CC(C)Oc1ccc(/N=c2\[nH]c(=O)n(Cc3ccc[nH]c3=O)c(=O)n2Cc2ccc(Cl)cc2)cc1F` [Compound I-0685, reference compound], the entry is “did not show coronavirus replication inhibitory activity”.
Regarding `Cc1nc2ccc(/N=c3\[nH]c(=O)n(C[C@H]4COC(C)(C)O4)c(=O)n3Cc3ccc(Cl)cc3)cc2s1` [Compound I-1603, reference compound], in experiment [2], the “coronavirus replication inhibitory activity” value is “did not show coronavirus replication inhibitory activity”.
As for `Cn1cnc(Cn2c(=O)nc(Nc3cc4cn(C)nc4cc3Cl)n(Cc3cc(F)ccc3F)c2=O)n1` [II-0208], the EC50 in experiment [2] (class symbols) was in the range of 1000 to 10000 nM.
On the same count and under the same terms, next, `CNc1nc2ccc(Nc3nc(=O)n(-c4cncc(Cl)c4)c(=O)n3Cc3ccc(F)c(C#N)c3)cc2s1` [II-0399]: < 1000 nM.
As to `Cn1cnc(Cn2c(=O)nc(Nc3cc4cn(C)nc4cc3Cl)n(Cc3cc(Cl)cc(F)c3OCCO)c2=O)n1` [II-0642], the half-inhibitory concentration (IC50) in experiment [1] (IC50) is < 100 nM.
For the molecule `CNC(=O)CCn1c(=O)nc(Nc2cc3cn(C)nc3cc2Cl)n(Cc2cc(F)c(F)cc2F)c1=O` [II-0643], inhibition in experiment [1] (IC50) was half-maximal at 1000 nM (IC50).
In turn, `COc1ccc(Nc2nc(=O)n(Cc3ncn(C)n3)c(=O)n2C2(c3ccc(F)c(F)c3)CC2)cc1` [II-0644] came in with a half-inhibitory concentration (IC50) in experiment [1] (IC50) of 3500 nM.

For orientation: IC50 means the concentration needed to halve the response being measured. What is called EC50 is the concentration giving half of the maximal effect. The low end stands for greater potency, the high end for weaker potency.
